Patent publication US20110160444A1, “Cloning Transcription Factor Gene OsWOX20 That Regulates The Growth and Development of Monocotyledon's Root and Uses Thereof” (Huazhong Agricultural University, priority 2007, published 2011)

What was measured:
[1] = tested on: OsWOX20 gene expression; test: Induced expression of rice endogenous gene OsWOX20 by realtime-PCR; assay type: in vivo, rice variety Zhonghua No. 11; settings: 10 μM, roots of seedlings soaked; for Induction of expression of OsWOX20 gene: samples 0-24 h, normalized to actin1; for Time after which level of expression of OsWOX20 began to rise / Time at which level of expression of OsWOX20 reached peak: exogenous auxin
Procedure: The rice variety “Zhonghua No. 11” was used as the research material and treated with auxin, cytokinin, an auxin inhibitor and light at day ten after germination. Auxin treatment was done by soaking the roots of the seedlings with 10 μM IAA (indoleacetic acid) and 10 μM NAA (naphthaleneacetic acid) and taking samples at 0 h, 0.5 h, 1 h, 2 h, 3 h, 4 h, 6 h, 9 h, 12 h and 24 h. Cytokinin treatment was done by soaking the roots of the seedlings with 10 μM 6-BA (6-benzylaminopurine) and taking samples at 0 h, 0.5 h, 1 h, 2 h, 3 h, 4 h, 6 h, 9 h, 12 h and 24 h. Auxin inhibitor NPA (N-1-naphthylphthalamic acid) treatment was performed by soaking the roots of the seedlings in 1 μM NPA solution and taking samples at 0 h, 0.5 h, 1 h, 2 h, 3 h, 4 h, 6 h, 9 h, 12 h and 24 h. Light treatment was carried out by allowing the seeds of rice variety “Zhonghua No. 11” to germinate in dark, then placing the seedlings which have germinated for 5 days in dark under light for growth, and sampling at 1 h, 2 h, 4 h, 8 h and 12 h after light illumination. Total RNAs were extracted from whole plants (Trizol reagent, purchased from Invitrogen) and reverse transcribed according to the method described in Example 4. The reverse transcription product was subjected to quantitative PCR in a reaction system of 25 μl containing 1.5 μl of reverse transcription product, 0.25 μM of each of left and right primers and 12.5 μl of SYBR Green mixture (Applied Biosystems). The PCR reaction was performed on a 7500 real-time quantitative PCR amplifier (Applied Biosystems) according to the protocol described in the manufacturer's manual provided by Applied Biosystems, with rice actin1 gene as the internal reference of the reaction. All primers were annealed at 58° C. and reaction was performed for 40 cycles. Each sample was assayed in triplicate and normalized to the level of expression of actin1. […] The OsWOX20 primers used in the quantitative PCR were: […]

[2] = tested on: wild-type plants; test: Effect of auxin inhibitor (NPA) on root length and numbers of crown and lateral roots, wild-type plants; assay type: in vivo, rice; settings: treated with 10^-6 mol/L NPA
From the text: (§1) 2) In order to compare the root system of transgenic OWOX20 lines with increased number of roots to that of wild-type lines, we collected seeds from five transgenic OWOX20 lines after the seeds were completely ripe and allowed the seeds to germinate to investigate growth of the roots.

[3] = tested on: transgenic plants (OsWOX20 overexpression lines 1-3); test: Effect of auxin inhibitor (NPA) on root length and numbers of crown and lateral roots, OsWOX20 transgenic plants; assay type: in vivo, rice; settings: for Length of roots / Number of crown roots / Number of lateral roots: treated with 10^-6 mol/L NPA
From the text: as §1

O=C(O)Cc1c[nH]c2ccccc12 [IAA, indoleacetic acid]
Induction of expression of OsWOX20 gene [1]: can be induced | Time after which level of expression of OsWOX20 began to rise [1]: 30 min | Time at which level of expression of OsWOX20 reached peak [1]: about 1 hour

O=C(O)c1ccccc1C(=O)Nc1cccc2ccccc12 [NPA, N-1-naphthylphthalamic acid]
Length of roots [2]: 4.8 ± 0.5 cm | Number of crown roots [2]: 3 ± 0 | Number of lateral roots [2]: 6.4 ± 2.8 | Growth of the roots ([3]; seeds from lines having increased number of roots, 10^-6 mol/L NPA): markedly inhibited | Length of roots ([3]; transgenic Line 1+): 1.1 ± 0.3 cm | Number of crown roots ([3]; transgenic Line 1+): 3.0 ± 2.7 | Number of lateral roots ([3]; transgenic Line 1+): 0 | Length of roots ([3]; transgenic Line 2+): 1.3 ± 0.6 cm | Number of crown roots ([3]; transgenic Line 2+): 1.7 ± 0.6 | Number of lateral roots ([3]; transgenic Line 2+): 0 | Length of roots ([3]; transgenic Line 3+): 1.0 ± 0.6 cm | Number of crown roots ([3]; transgenic Line 3+): 3.0 ± 1.0 | Number of lateral roots ([3]; transgenic Line 3+): 0 | Numbers and length of crown roots and lateral roots versus untreated plant lines ([3]; transgenic plant lines in the presence of NPA): significantly decreased

c1ccc(CNc2ncnc3nc[nH]c23)cc1 [6-BA, 6-benzylaminopurine]
Induction of expression of OsWOX20 gene [1]: can be induced

O=C(O)Cc1cccc2ccccc12 [NAA, naphthaleneacetic acid]
Time after which level of expression of OsWOX20 began to rise [1]: 30 min | Time at which level of expression of OsWOX20 reached peak [1]: about 1 hour
